Assay results taken from BindingDB's records for PubMed 9353393 (Torrey Pines Institute For Molecular Studies, 1997).
Residues, ends and D or L forms follow the SMILES beside them.

Molecular target: Nociceptin receptor (Mus musculus, UniProt P35377)
Sequence (P35377 whole entry): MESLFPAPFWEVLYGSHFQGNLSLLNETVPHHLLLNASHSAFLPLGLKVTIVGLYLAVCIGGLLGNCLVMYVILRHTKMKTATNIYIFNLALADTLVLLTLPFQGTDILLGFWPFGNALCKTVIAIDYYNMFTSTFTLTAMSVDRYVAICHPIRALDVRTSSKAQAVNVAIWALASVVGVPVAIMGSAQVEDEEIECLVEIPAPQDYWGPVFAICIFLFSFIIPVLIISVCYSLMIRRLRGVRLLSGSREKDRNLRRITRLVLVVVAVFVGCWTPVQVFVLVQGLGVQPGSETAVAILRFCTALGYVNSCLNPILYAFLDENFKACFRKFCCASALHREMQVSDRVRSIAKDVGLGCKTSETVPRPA

## CC(C)C[C@H](NC(=O)[C@H](CCCCN)NC(=O)[C@H](CCCN=C(N)N)NC(=O)[C@H](C)NC(=O)[C@H](CO)NC(=O)[C@H](CCCCN)NC(=O)[C@H](CCCN=C(N)N)NC(=O)[C@H](C)NC(=O)CNC(=O)[C@@H](NC(=O)[C@H](Cc1ccccc1)NC(=O)CNC(=O)CNC(=O)[C@@H](N)Cc1ccccc1)[C@@H](C)O)C(=O)N[C@@H](C)C(=O)N[C@@H](CC(N)=O)C(=O)N[C@@H](CCC(N)=O)C(=O)O [OFQ 1-17]
  Ki: 0.43 nM

## CC(=O)N[C@@H](CCCNC(=N)N)C(=O)N[C@@H](Cc1ccc(O)cc1)C(=O)N[C@@H](Cc1ccc(O)cc1)C(=O)N[C@@H](CCCNC(=N)N)C(=O)N[C@@H](Cc1c[nH]c2ccccc12)C(=O)N[C@@H](CCCN=C(N)N)C(N)=O [Ac-RYYRWR-NH2] (Ac-RYYRWR-NH2)
  Ki: 0.6 nM

## CC[C@H](C)[C@H](NC(=O)[C@H](CCCN=C(N)N)NC(=O)[C@H](Cc1ccc(O)cc1)NC(=O)[C@H](Cc1ccc(O)cc1)NC(=O)[C@H](CCCN=C(N)N)NC(C)=O)C(=O)N[C@@H](CCCCN)C(N)=O [CAS_200959-48-4]
  Ki: 1.5 nM

## CC(=O)N[C@@H](CCCNC(=N)N)C(=O)N[C@@H](Cc1ccc(O)cc1)C(=O)N[C@@H](Cc1ccc(O)cc1)C(=O)N[C@@H](CCCNC(=N)N)C(=O)N[C@@H](Cc1c[nH]c2ccccc12)C(=O)N[C@@H](CCCCN)C(N)=O [CAS_200959-47-3] (Ac-RYYRWK-NH2)
  Ki: 0.71 nM

## CC(=O)N[C@@H](CCCNC(=N)N)C(=O)N[C@@H](Cc1ccc(O)cc1)C(=O)N[C@@H](Cc1ccc(O)cc1)C(=O)N[C@@H](CCCCN)C(=O)N[C@@H](Cc1c[nH]c2ccccc12)C(=O)N[C@@H](CCCN=C(N)N)C(N)=O [Ac-RYYKWR-NH2] (Ac-RYYKWR-NH2)
  Ki: 1.47 nM
